Measurements reported in patent publication US7807368B2, “Cyclin-dependent kinase inhibitors as targets for opiod growth factor treatment” (priority 2006, dated 2010).
“Also recorded” adds a separate entry of the source.

What was measured:
Type in all cases: cell-based, human
Capan-2 cells = assay: Growth curves of Capan-2 cells transfected with p21 siRNA or negative control siRNA
Method: Human pancreatic cancer cell lines BxPC-3, PANC-1, and Capan-2 were obtained from the American Type Culture Collection (Manassas, Va.), and cultured in RPMI, Dulbecco's Modified Medium, or McCoy's 5A medium, respectively. All media were supplemented with 10% fetal bovine serum, 1.2% sodium bicarbonate, and 0.25% antibiotics (5000 units/ml penicillin, 5 μg/ml streptomycin and 10 μg/ml neomycin). OGF was purchased from Sigma-Aldrich (St. Louis, Mo.), dissolved in sterile water, and used at a final concentration of 10^−6 M.
(§1) The p21-targeted siRNAs were obtained from Santa Cruz Biotechnology, and negative control siRNAs were purchased from Ambion (Ambion, Inc., Austin, Tex.). For transfection, 2×10^5 cells per well were seeded in 6-well plates containing 1 ml of media without antibiotics. For each well, 1 μl of siRNA stock (20 μM) was mixed with 175 μl of serum-free media. Two μl of Oligofectamine reagent (Invitrogen, Carlsbad, Calif.) was added to prewashed cells in each well, making the final concentration for siRNA approximately 20 nM. Cells were incubated for 4 hours at 37° C. prior to the addition of OGF. Eighteen hours later, 1 ml fresh complete media with or without OGF was added to the cultures; media and OGF were replaced daily. At the indicated time points, cells were collected for growth curves or Western blotting.

BxPC-3 cells = assay: Growth of BxPC-3 cells transfected with p21 siRNA or negative control siRNA; conditions: for reduction in growth: negative control siRNA-transfected BxPC-3 cells
Method: as §1

CAL-27 cells = assay: Growth curves of CAL-27 cells transfected with p16 siRNA
Method: (§2) The SCC-1 (UM-SCC-1) cell line was obtained from the University of Michigan Cancer Research Laboratory, and CAL-27 and SCC-4 cells were obtained from the American Type Culture Collection (Manassas, Va.). SCC-1 and CAL-27 cells were cultured in DMEM media, whereas SCC-4 cells were grown in 1:1 Hams F-12 DMEM media. All media was supplemented with 10% fetal bovine serum (HyClone, Logan, Utah), 1.2% sodium bicarbonate, and 5000 units/ml penicillin, 5 μg/ml streptomycin and 10 μg/ml neomycin. OGF was purchased from Sigma-Aldrich (St. Louis, Mo.), dissolved in sterile water, and used at a final concentration of 10^−6 M.
(§3) The p16-targeted siRNAs (antisense:5′ […]-3′; sense (SEQ ID NO:5): 5′ […]-3′(SEQ ID NO:6) were obtained as ready-annealed, purified duplex probes (Invitrogen, Carlsbad, Calif.). For transfection, 2×10^5 cells per well were seeded in 6-well plates containing 1 ml of serum-free media without antibiotics. In each well, 20 nM of p16-siRNA or control siRNA solutions in serum-free media were added. Cells were incubated for 4 h at 37° C. prior to the addition of OGF. Cultures were incubated for additional 20 h, and then 1 ml fresh complete media either lacking or containing OGF was added. At the indicated time points, cells were collected for growth curves or Western blotting. Three or more independent experiments were conducted. The control siRNAs were purchased from Ambion.

SCC-4 cells = assay: Growth curves of SCC-4 cells transfected with p16 siRNA or negative control siRNA
Method: as §2, §3

SCC-1 cells = assay: siRNA knockdown of OGFr, growth of SCC-1 cells; conditions: 10^-6 M; for depression of growth: 96 h
Method: siRNA knockdown of OGFr. […] For transfection, 5×10^4 cells per well were seeded in 6-well plates containing 1 ml of serum-containing media without antibiotics. In each well, 20 nM OGFr-siRNA or control siRNA solutions in serum-free media were added. Cells were incubated for 4 h at 37° C. prior to the addition of OGF. Cultures were incubated an additional 20 h, and then 1 ml fresh complete media either lacking or containing OGF was added. […] Two independent experiments were conducted. The control siRNAs were purchased from Ambion.

p16 = assay: Western blot of p16, other CKIs and Cdk4 in SCC-1 cells
Method: Synchronized cells (˜2×10^6) from each treatment were solubilized in 200 μl RIPA buffer (1×PBS, 10 μM IGEPAL, 1 mg/ml SDS, 5 mg/ml deoxycholic acid), containing protease and phosphatase inhibitors (2 μg/ml aprotinin, 3 mg/ml phenylmethyl sulfonyl fluoride (PMSF), 1 mM sodium orthovanidate, 1 μM okadaic acid). Total protein concentrations were measured using the DC protein assay kit (Bio-Rad Laboratories, Hercules, Calif.). Equal amounts of protein (40 μg) were subjected to 10% SDS-PAGE followed by transfer of proteins onto polyvinylidene difluoride (Millipore, Billerica, Mass.) using standard protocols. The following antibodies were purchased from commercial sources: phospho-Rb (Ser795), phospho-Rb (Ser807/811) (Cell Signaling Technology, Beverly, Mass.); phospho-Rb (Thr821) (Biosource, Camarillo, Calif.); Cdk4, cyclin D1, p15, p16, p18, p19 (Santa Cruz Biotechnology, Santa Cruz, Calif.); total Rb, p21, p27 (BD PharMingen, San Diego, Calif.); β-actin (Clone AC-15, Sigma). The following dilutions of primary antibodies were used to detect respective proteins. 1:200 phospho-Rb (Ser795), 1:200 phospho-Rb (Ser807/811); 1:200 phospho-Rb (Thr821); 1:200 Cdk4, 1:200 cyclin D1, 1:100 p16; 1:200 total Rb, 1:200 p21, 1:100 p27. Membranes were probed with secondary anti-rabbit or anti-mouse horseradish peroxidase-conjugated antibodies (GE Healthcare-Amersham Biosciences, Piscataway, N.J.); blots were developed using a chemiluminescence Western blotting detection system (GE Healthcare-Amersham Biosciences).
To determine equal loading of total protein samples, blots were reprobed with monoclonal antibody against β-actin at a dilution of 1:2000. If necessary, membranes were stripped in stripping buffer (62.5 mM Tris-HCl and 100 mM β-mercaptoethanol/2% SDS, pH 6.7) at 50° C. before being re-probed. Means and SE were determined from 3 or more independent experiments.
To quantify expression levels or kinase activity, the optical density of each band was determined by densitometry and analyzed by QuickOne (Bio-Rad Laboratories). Each value was normalized to β-actin from the same blot. To report the changes due to OGF treatment, the fold increase was calculated by dividing the normalized value from the OGF treated samples by the normalized value of control samples at each time point; thus, increases due to OGF have values greater than one, and decreases due to OGF have values less than one.
as §3

Q: How did the effect on growth (Capan-2 cells; Capan-2 cells transfected with negative control siRNA, 48, 72, and 96 hours) turn out when [Met^5]-enkephalin [OGF] was run?
A: did depress growth

Q: What about the “effect on growth of cells lacking p21” value (Capan-2 cells; Capan-2 cells transfected with p21 siRNA) of the same substance?
A: no inhibitory action

Q: And the “effect on cell growth of cells transfected with p21 siRNA” value (BxPC-3 cells; BxPC-3 cells, 10^-6 M OGF)?
A: no effect

Q: And the “Cell numbers vs transfected cells receiving sterile water” value (BxPC-3 cells; BxPC-3 cultures transfected with negative control siRNA, 10^-6 M OGF (FIG. 8))?
A: significantly reduced

Q: What about the reduction in growth (BxPC-3 cells; 10^-6 M OGF, 48 hours) of the same substance?
A: 17.8%

Q: And the reduction in growth (BxPC-3 cells; 10^-6 M OGF, 72 hours)?
A: 28.6%

Q: And the reduction in growth (BxPC-3 cells; 10^-6 M OGF, 96 hours)?
A: 35.8%

Q: What about the reduction in growth (BxPC-3 cells; 10^-6 M OGF, 120 hours) of the same substance?
A: 33.0%

Q: And the “effect on growth of cells lacking p16” value (CAL-27 cells)?
A: no inhibitory effects

Q: What about the decrease of growth (SCC-4 cells; SCC-4 cells transfected with negative control siRNAs, 96 h) of the same substance?
A: 43%

Q: And the “effect on growth of cells lacking p16 expression” value (SCC-4 cells; SCC-4 cells transfected with p16 siRNAs)?
A: no effect

Q: And the “effect on growth of OGFr-siRNA cultures” value (SCC-1 cells; SCC-1 cells subjected to OGFr-siRNA)?
A: no further effects

Q: What about the depression of growth (SCC-1 cells; control siRNA-treated SCC-1 cells) of the same substance?
A: 46%

Q: And the depression of growth (SCC-1 cells; wt SCC-1 cells)?
A: 29%

Q: And the “expression of cell cycle inhibitors p15, p18, p19, p21 and p27” value (p16; OGF treatment of SCCHN)?
A: no significant effect

Q: And the “expression of Cdk4 protein” value (p16; following OGF exposure)?
A: did not change

Q: What about the p16 expression (p16; synchronized SCC-1 cells, 3 h, 10^-6 M OGF, 10^-5 M naloxone) of the same substance?
A: significantly upregulated; also recorded: significantly elevated
